Results: article PMC5618421, “Anti-Inflammatory Effects of Curvularin-Type Metabolites from a Marine-Derived Fungal Strain Penicillium sp. SF-5859 in Lipopolysaccharide-Induced RAW264.7 Macrophages” (Marine Drugs, 2017)

Experiments:
COX-2 = experiment: Western blot of COX-2 protein expression in LPS-stimulated RAW264.7 macrophages; assay type: cell-based; settings: pre-treated 3 h, LPS 24 h
Text: Therefore, we further tested whether inhibitory effects of 8 against NO and PGE2 productions are correlated with the protein expression of pro-inflammatory enzymes (i.e., iNOS and COX-2, respectively), which are known to catalyze the production of NO and PGEs in LPS-stimulated cells. […] Upon the stimulation by LPS, macrophages can also trigger the production of pro-inflammatory cytokines such as TNF-α, and ILs. The overproduction of these cytokines contributes to the pathogenesis of inflammatory diseases. Thus, we further evaluated the effects of 8 on the mRNA expression of pro-inflammatory cytokines in the LPS-induced cells. The cells were pre-treated with indicated concentration for 3 h, followed by LPS stimulation (1 μg/mL) for 6 h. The mRNA expression of pro-inflammatory cytokines was determined by RT-qPCR.
Figure 2 Effects of 8 on protein expression levels of iNOS and COX-2 (a), and mRNA expression levels of IL-1β (Il1b) (b), IL-6 (Il6) (c), and TNF-α (Tnf) (d) in RAW264.7 macrophages. The cells were pre-treated for 3 h with the indicated concentrations of 8 and stimulated for 24 h (a), and 6 h (b–d) with LPS (1 μg/mL). The measurement of western blot analysis and RNA quantification for Il1b, Il6, and Tnf expression were performed as described in the Materials and Methods. […]
The proteins of iNOS, COX-2, NF-κB, and MAPKs were measured by Western blot analysis. […]

p97 = test system: p97; parameters: method as in PMID 27223265; settings: interfering with its ATPase activity; cited from earlier work
RAW264.7 macrophages = experiment: Cell viability (MTT) cytotoxic assay; assay type: cell-based; settings: RAW264.7 macrophages, MTT
Method: RAW264.7 macrophages were maintained at a density of 5 × 10^5 cells/mL in RPMI1640 medium supplemented with 10% heat-inactivated FBS, penicillin G (100 units/mL), streptomycin ([…]), and L-glutamine (2 mM), and were incubated at 37 °C in a humidified atmosphere containing 5% CO2. For determination of cell viability, cells (1 × 10^5 cells/well in 96-well plates) were incubated with 3-(4,5-dimethylthiazol-2-yl)-2,5-diphenyltetrazolium bromide (MTT) at a final concentration of 0.5 mg/mL for 3 h, and the formazan formed was dissolved in acidic 2-propanol. The optical density was measured at 540 nm with a microplate reader (BioRad, Hercules, CA, USA). The optical density of the formazan formed in control (untreated) cells was considered to represent 100% viability.

[1] = test system: NO production in LPS-treated RAW 264.7 macrophages; experiment: Inhibition of NO production (nitrite, Griess reaction) in LPS-treated RAW264.7 macrophages; assay type: cell-based; settings: Mus musculus; RAW264.7 macrophages pre-treated 3 h with compound, then LPS (1 μg/mL) 24 h; Griess reaction
Method: All isolated compounds (1–9) were evaluated for their anti-inflammatory effects. […] NO is a small molecule which is an intracellular mediator produced in various immune cells. It plays a pivotal role in the physiological and pathological condition of inflammatory symptoms. PGE2 can also regulate the immune and inflammatory responses. In this study, RAW264.7 macrophages were pre-treated for 3 h in the medium containing non-toxic concentrations (Table 2) of each compound (1–9), and then LPS (1 μg/mL) was treated for 24 h. According to the LPS stimulation of RAW264.7 macrophages, production of NO and PGE2 was increased, and the effects of all compounds on the production level of NO and PGE2 were evaluated by the Griess reaction and a PGE2 kit, respectively. […] To evaluate the impact of phenol and resorcinol groups in the curvularin-type metabolites for the anti-inflammatory activity, 5-O-methyl and 5,7,-di-O-methyl derivatives of curvularin (3a and 3b, respectively), as well as 5-O-acetyl and 5,7,-di-O-acetyl derivatives of curvularin (3c and 3d, respectively), were prepared, and the structures of 3a–3d were identified by comparison the ^1H and ^13C-NMR spectroscopic data with those of curvularin (3), and confirmed by their HRESIMS. […] The position of the methoxy group in 3a was confirmed by HMBC correlation between methoxy signal at δH 3.77 (3H, s, 5-OCH3) and δC 161.8 (C-5). The NOESY cross-peaks between acetyl proton ([…]) with H-2, H-4, and H-16 of 3c were used to identify the position of the acetyl group in 3c. […] Further systematic investigations are needed to clarify the structure activity relationship associated with the modification of the aliphatic part of the molecule.
As an indicator of NO production in RAW264.7 macrophages, production of nitrite, a stable end-product of NO oxidation, was estimated. Briefly, the concentration of nitrite in the conditioned media was determined by a method based on the Griess reaction, and the details of the assay were described previously.

NF-κB (p50 and p65) = experiment: Western blot of nuclear NF-κB (p50 and p65) in LPS-treated RAW264.7 macrophages; assay type: cell-based; settings: pre-treated 3 h, LPS (1 μg/mL) 1 h
Method: Figure 3 Effects of 8 on NF-κB activation (nuclear-p50 and p65) (a), IκBα phosphorylation and degradation (b), and the DNA binding activity of NF-κB (c) in LPS-treated RAW264.7 macrophages. Cells were pre-treated with the indicated concentrations of 8 for 3 h and stimulated with LPS (1 μg/mL) for 1 h. Western blot analysis (IκBα and p-IκBα in the cytoplasm and NF-κB in the nucleus) was performed as described in the Materials and Methods. Representative blots from three independent experiments are shown. A commercially-available NF-κB ELISA kit (Active Motif) was used to test the nuclear extracts and determine the degree of NF-κB binding. The data shown represent the mean values of three independent experiments. * p < 0.05 compared with the group treated with LPS.
(§1) The proteins of iNOS, COX-2, NF-κB, and MAPKs were measured by Western blot analysis. The details of procedures for Western blot analysis were described previously.
The proteins of nuclear NF-κB (p50 and p65) and cytosolic IκBα (p-IκBα and IκBα) were obtained by using cytosolic and nuclear fractions. The details of this procedure have been described previously.

IL-1β (Il1b) = experiment: RT-qPCR of IL-1β mRNA in LPS-stimulated RAW264.7 macrophages; assay type: cell-based; settings: pre-treated 3 h, LPS (1 μg/mL) 6 h
[2] = test system: extracellular signal-regulated kinase (ERK); experiment: Western blot of ERK phosphorylation in LPS-treated RAW264.7 macrophages; assay type: cell-based; settings: pre-treated 3 h, LPS (1 μg/mL) 30 min
Method: Figure 4 Effects of 8 on p38 (a), JNK (b), and ERK (c) phosphorylation in RAW264.7 macrophages. Cells were pre-treated with the indicated concentrations of 8 for 3 h and stimulated for 30 min with LPS (1 μg/mL). Cell extracts were subjected to Western blotting with antibodies specific for phosphorylated-p38 (p-p38), phosphorylated JNK (p-JNK), or phosphorylated ERK1/2 (p-ERK). Membranes were stripped and re-probed to measure the total abundance of each MAPK as a control measurement. Representative blots from three independent experiments are shown.
as §1

TNF-α (Tnf) = experiment: RT-qPCR of TNF-α mRNA in LPS-stimulated RAW264.7 macrophages; assay type: cell-based; settings: pre-treated 3 h, LPS (1 μg/mL) 6 h

## C[C@H]1CCC/C=C/C(=O)c2c(O)cc(O)cc2CC(=O)O1 [Compound 8, (10E,15S)-10,11-dehydrocurvularin]
COX-2
  COX-2 protein expression: attenuation of the excessive protein expression of iNOS and COX-2 in a dose-dependent manner
p97
  inhibition of p97: covalent inhibitor of p97
RAW264.7 macrophages
  Cytotoxicity (the maximum concentration not affecting cell viability): 20 µM
[1]
  IC50: 1900 ± 300 nM
NF-κB (p50 and p65)
  nuclear translocation of p50 and p65: clearly suppressed the nuclear translocation of p50 and p65 in a dose-dependent manner
IL-1β (Il1b)
  mRNA expression of IL-1β: markedly suppressed the mRNA expression of IL-1β, IL-6, and TNF-α in a dose-dependent manner
[2]
  LPS-induced phosphorylation of ERK: did not suppress these phosphorylations
TNF-α (Tnf)
  mRNA expression of TNF-α: markedly suppressed the mRNA expression of IL-1β, IL-6, and TNF-α in a dose-dependent manner
